Experimental data: patent publication US6620423B2, “Use for pain management” (AstraZeneca AB, priority 1998, dated 2003)
Counter-ions that a name gives are not always drawn.

Columns and labels:
[1] = system: patients with myofascial pain syndrome (MPS); conditions: bupivacaine 0.25%, lignocaine 1%, local injection, 107 patients; cited from earlier work
[2] = system: patients with orofacial muscle (myofascial) pain, masseter muscle tender points; test: VAS pain at maximal mouth opening after intramuscular tender point injection; format: in vivo, human
Procedure: Ropivacaine hydrochloride 7.5 mg/ml solution for injection was used (Naropin®, Astra AB, Sweden). Ropivacaine was administered as a single dose intra-muscular tender point (TP) injection. Injection by means of one needle insertion per tender point was preceded by aspiration before infiltrating the study drug over the entire tender area. A standard disposable syringe with a 0.4 mm diameter needle was used. Injection rate was about 1 ml/30 sec. Injections were made at one occassion at a visit to the clinic. Follow-up data were obtained at a study end visit to the clinic 1 week after the injection. Ten patients (5 men and 5 women) whose age varied from 19 years to 69 years (mean 42.9 years of age) were included in this test. The duration of complaints ranged from 1 month up to 10 years (mean 26.5 months). All patients were subjected to unilateral injections of ropivacaine into tender points of the masseter muscle. Three patients received 1 ml, 5 patients received 2 ml, 1 patient received 3 ml and 1 patient received 4 ml of the study drug. (i) Pain on maximal mouth opening The patient rated their pain on a 100 mm visual analogue scale (VAS). On the VAS, 0 represents “no pain” and 100 represents “worst pain imaginable”. The primary efficacy variable was VAS pain score at maximal mouth opening. The patient was asked to open the mouth as much as possible and then they rated the experienced pain.

[3] = system: patients with orofacial muscle (myofascial) pain, masseter muscle tender points; test: VAS pain at rest (jaw at rest) after intramuscular tender point injection; format: in vivo, human
Procedure: (§1) Ropivacaine hydrochloride 7.5 mg/ml solution for injection was used (Naropin®, Astra AB, Sweden). Ropivacaine was administered as a single dose intra-muscular tender point (TP) injection. Injection by means of one needle insertion per tender point was preceded by aspiration before infiltrating the study drug over the entire tender area. A standard disposable syringe with a 0.4 mm diameter needle was used. Injection rate was about 1 ml/30 sec. Injections were made at one occassion at a visit to the clinic. Follow-up data were obtained at a study end visit to the clinic 1 week after the injection. Ten patients (5 men and 5 women) whose age varied from 19 years to 69 years (mean 42.9 years of age) were included in this test. The duration of complaints ranged from 1 month up to 10 years (mean 26.5 months). All patients were subjected to unilateral injections of ropivacaine into tender points of the masseter muscle. Three patients received 1 ml, 5 patients received 2 ml, 1 patient received 3 ml and 1 patient received 4 ml of the study drug. (ii) Pain at rest The non-functional pain (jaw at rest) was also assessed by the patient on the VAS scale. This parameter was rated before the rating of pain on maximal mouth opening.

[4] = system: patients with orofacial muscle (myofascial) pain, masseter muscle tender points; test: Frequency of pain episodes / freedom from muscular pain at follow-up; format: in vivo, human
Procedure: as §1, with “the injection. A case history information including the duration of the present orofacial muscle pain was collected. A clinical examination of the orofacial region including digital palpation of the temporomandibular joints and masticatory muscles. Ten patients” for “the injection. Ten patients”, “study drug.” for “study drug. (ii) Pain at rest The non-functional pain (jaw at rest) was also assessed by the patient on the VAS scale. This parameter was rated before the rating of pain on maximal mouth opening.”

Row | SMILES | Effect on pain compared between bupivacaine, lignocaine and saline [1] | Pain at maximal jaw opening, 100 mm VAS, Follow-up, Max ([2]; 10 patients, 7.5 mg/ml single i.m. injection, follow-up 1 week, baseline max 95) | Pain at maximal jaw opening, 100 mm VAS, Follow-up, Mean ([2]; 10 patients, 7.5 mg/ml single i.m. injection, follow-up 1 week, baseline mean 59.3, S.D. 32.34) | Pain at maximal jaw opening, 100 mm VAS, Follow-up, Min ([2]; 10 patients, 7.5 mg/ml single i.m. injection, follow-up 1 week, baseline min 8) | Pain at maximal jaw opening, 100 mm VAS, Follow-up, Median ([2]; 10 patients, 7.5 mg/ml single i.m. tender point injection (1-4 ml), follow-up 1 week, baseline median 59.5) | VAS rated pain at maximal mouth opening, change as a result of the treatment ([2]; baseline vs follow-up 1 week, result in words) | Pain at rest, 100 mm VAS, Follow-up, Max ([3]; 10 patients, 7.5 mg/ml single i.m. injection, follow-up 1 week, baseline max 89) | Pain at rest, 100 mm VAS, Follow-up, Mean ([3]; 10 patients, 7.5 mg/ml single i.m. injection, follow-up 1 week, baseline mean 33.3) | Pain at rest, 100 mm VAS, Follow-up, Median ([3]; 10 patients, 7.5 mg/ml single i.m. injection, follow-up 1 week, baseline median 19.5) | Pain at rest, 100 mm VAS, Follow-up, Min ([3]; 10 patients, 7.5 mg/ml single i.m. injection, follow-up 1 week, baseline min 3) | Pain at rest, change as the result of the treatment ([3]; baseline vs follow-up, result in words) | Patients who became free or almost free of their muscular pain ([4]; FIG. 1, 10 patients treated) | Patients with pain at one occasion during the week prior to follow-up ([4]; of 10 patients) | Patients with pain several times a week or every day at follow-up ([4]; of 10 patients) | Patients with not a single episode with pain during the week prior to follow-up ([4]; of 10 patients, at baseline 2 had pain every day, 8 several times per week)
1 | CCCCN1CCCCC1C(=O)Nc1c(C)cccc1C (stereo not shown) [bupivacaine] | No significant difference | – | – | – | – | – | – | – | – | – | – | – | – | – | –
2 | CCN(CC)CC(=O)Nc1c(C)cccc1C [lignocaine] | No significant difference | – | – | – | – | – | – | – | – | – | – | – | – | – | –
3 | CCCN1CCCC[C@H]1C(=O)Nc1c(C)cccc1C [ropivacaine, (S)-(−)-i-propyl-2′,6′-pipecoloxylidide hydrochloride] | – | 75 mm | 27.3 mm | 0 mm | 6 mm | dramatic reduction | 16 mm | 3.7 mm | 3.5 mm | 0 mm | decreased significantly | 6 out of the 10 | 1 patient | 3 patients | 6 patients
